Columns and labels:
[1] = Static calcium carbonate % inhibition evaluation (EDTA titration of filtrate calcium); conditions: 1106 ppm Ca as CaCO3, 1160 ppm CO3 as CaCO3, pH = 9.0, Temp. = 70°C, Duration = 17 hours
Experimental: Table II summarizes the static calcium carbonate inhibition testing of the compounds of the present invention compared to several prior art calcium carbonate control agents. The tests were performed by adding the treatment solution (sample) to a carbonate stock solution of the described conditions.
A calcium stock solution was then added and the mixture was incubated for 17 hours at 70°C. All treatments were adjusted to pH 9.0 prior to use and the treatment weights, expressed as the sodium salts, accounted for the presence of disodium tartrate by-product. After cooling, a measured portion of the mixture was filtered and the filtrate pH adjusted to less than 1 with hydrochloric acid. The filtrate was then diluted and pH adjusted to 12 with sodium hydroxide. A calcium indicator, murexide, was then added and the solution titrated with a known concentration of ethylenediaminetetraacetic acid (EDTA). From titrations for the treated, stock and control solutions, the percent inhibition was calculated as follows: % Inhibition =(mls EDTA(treated) - mls EDTA(control))/(mls EDTA(stock) - mls EDTA(control))x 100 [formula]

[2] = Beaker Corrosion Test Apparatus (BCTA): coupon and probe weight loss, electrochemical corrosion rate; conditions: 25 ppm, base treatment 1 ppm HEDP, 10 ppm acrylic copolymer, 15 ppm molybdate (PESA: no HEDP), pH 8.4, 120°F, 40 hours
Experimental: The corrosion inhibition activity of the present invention was evaluated with a Beaker Corrosion Test Apparatus (BCTA). […] The test solution volume is 1.9 liters.
Electrochemical corrosion rate data (EC) are obtained during the test from potentiodynamic polarization resistance measurements. Additional corrosion data is obtained from the coupon and the electrochemical probe by standard weight loss measurement techniques. All tests were conducted under the following conditions unless otherwise noted:
Under these conditions, the test water is supersaturated with respect to calcium carbonate. […] Therefore, all tests were conducted with a base treatment to inhibit the precipitation of calcium carbonate under the test conditions. The blank runs reported for all tests include the addition of the base treatment.
In all tests, the blank corrosion rates are expressed in mils per year (mpy). The corrosion rates for the inhibitor compounds are expressed as a reduction in the corrosion rate relative to the blank calculated according to the following equation: % Corrosion Inhibition =((mpy Blank - mpy Treated))/(mpy Blank)x 100 [formula]
All tests were conducted as parts per million of the inhibitor molecule as the sodium salt. Compound αHCA(12) was evaluated as ppm of the free acid.
A sample of poly[epoxysuccinic acid]

## O=C(O)CCC(CC(=O)O)(C(=O)O)P(=O)(O)O (stereo not drawn) [PBSAM, 2-phosphonobutane - 1,2,4-tricarboxylic acid]
[1]; 5 ppm Actives
  Static Calcium Carbonate % Inhibition: 67.5%
[1]; 10 ppm Actives
  Static Calcium Carbonate % Inhibition: 76.0%

## CC(O)(P(=O)(O)O)P(=O)(O)O [HEDP, 1-hydroxyethylidene-1,1-diphosphonic acid]
[1]; 5 ppm Actives
  Static Calcium Carbonate % Inhibition: 73.1%
[1]; 10 ppm Actives
  Static Calcium Carbonate % Inhibition: 71.3%

## O=C([O-])C(O)[C@H](NCCS(=O)(=O)[O-])C(=O)[O-].[Na+].[Na+].[Na+] (stereo partly drawn) [αHCA(9), aspartic acid, 3-hydroxy, N-[2-ethanesulfonic acid]-trisodium salt]
[2]; coupon weight loss relative to blank (62.4 mpy)
  Percent Corrosion Inhibition, Coupon: 29.3%
[2]; electrochemical corrosion rate relative to blank (47.1 mpy)
  Percent Corrosion Inhibition, EC (avg): 69.4%
[2]; probe weight loss relative to blank (58.9 mpy)
  Percent Corrosion Inhibition, Probe: 66.2%
[1]; 5 ppm Actives
  Static Calcium Carbonate % Inhibition: 5.1%
[1]; 10 ppm Actives
  Static Calcium Carbonate % Inhibition: 3.7%
